Data from PubChem BioAssay (NCI).
Where “and” joins values, the source holds several entries; their conditions need not be identical. Equal entries are not always repeated.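 1) Cells in 96-well plates. 2) Compound, 48 h, 5 concentrations. 3) Linear interpolation between surrounding doses. 4) Unreached endpoint = highest concentration. At the GI50, growth is halved. TGI is the concentration that stops growth completely.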

Tests used:
Assay in all cases: NCI tumour cell line growth inhibition, 48 h
DMS 114 small cell lung = tested on: DMS 114 small cell lung
M19-MEL melanoma = tested on: M19-MEL melanoma
RXF-631 renal = tested on: RXF-631 renal
SNB-78 CNS = tested on: SNB-78 CNS
XF 498 CNS = tested on: XF 498 CNS
HOP-18 NSCLC = tested on: HOP-18 NSCLC
DMS 273 small cell lung = tested on: DMS 273 small cell lung
LXFL 529 NSCLC = tested on: LXFL 529 NSCLC
MDA-N = tested on: MDA-N
P388 leukemia = tested on: P388 leukemia
SN12K1 renal = tested on: SN12K1 renal
P388/ADR leukemia = tested on: P388/ADR leukemia

| Compound | TGI (DMS 114 small cell lung) | TGI (M19-MEL melanoma) | TGI (RXF-631 renal) [µM] | TGI (SNB-78 CNS) | TGI (XF 498 CNS) [µM] | TGI (HOP-18 NSCLC) | TGI (DMS 273 small cell lung) | TGI (LXFL 529 NSCLC) [µM] | TGI (MDA-N) | further results |
| --- | --- | --- | --- | --- | --- | --- | --- | --- | --- | --- |
| CC1(Cl)C(=O)NC(=O)N([C@H]2C[C@H](O)[C@@H](CO)O2)C1N=[N+]=[N-] (stereo partly specified) | > 100 µM | > 100 µM | > 100 | > 100 µM | > 100 | > 100 µM | > 100 µM | > 100 |  |  |
| COc1ccc(-c2cc(=O)c3c(O)c(O)c(OC)cc3o2)cc1O |  | > 100 µM | > 100 |  | > 100 | > 100 µM | > 100 µM | > 100 |  |  |
| O=C(NCCCN1CCN(CCCNC(=O)c2cccc3ccccc23)CC1)c1cccc2ccccc12 | > 100 µM | > 100 µM | > 100 | > 100 µM | 93.9 | > 100 µM |  | > 100 |  |  |
| Cc1cc(NS(=O)(=O)c2ccc(NC(=O)c3ccc(Cl)c4c(Nc5ccc(S(=O)(=O)Nc6cc(C)on6)cc5)c5ccccc5nc34)cc2)no1 | 42.5 µM | 50.3 µM |  | 84.1 µM | 75.9 | 30.4 µM | 42 µM | 48.5 |  |  |
| COC(=O)c1csc(-c2csc(CCNC(=O)OC(C)(C)C)n2)n1 |  |  |  |  |  |  |  |  | > 100 µM |  |
| CC(=O)c1cc2c(Br)cccc2oc1=O |  |  |  |  |  |  |  |  | > 100 µM |  |
| COC(=O)NC1(NC(=O)OC)NC(=O)c2ccccc2N1 |  |  |  |  |  |  |  |  | > 100 µM |  |
| CCC/C=C/C=C/C(=O)OC1/C(=C/C(=O)OC)CC2CC(C(C)O)OC(=O)CC(O)CC3CC(OC(C)=O)C(C)(C)C(O)(CC4C/C(=C/C(=O)OC)CC(/C=C/C(C)(C)C1(O)O2)O4)O3 (stereo unspecified) | > 10.9 µM and 8.97 µM | > 10.9 µM and 11 µM |  | 7.22 µM and 11 µM | 11 | 2.52 µM and 10.8 µM | > 10.9 µM and 11 µM |  | 11 µM and > 12.5 µM | GI50 (DMS 114 small cell lung): > 10.9 µM and 2.92 µM; GI50 (P388 leukemia): 9.73 µM; TGI (P388 leukemia): 10.9 µM and 11 µM; GI50 (MDA-N): > 12.5 µM; GI50 (M19-MEL melanoma): > 10.9 µM and 7.88 µM; GI50 (SN12K1 renal): > 11 µM; TGI (SN12K1 renal): > 11 µM; TGI (P388/ADR leukemia): 10.9 µM and 11 µM; GI50 (SNB-78 CNS): 5.56 µM and 10.3 µM; GI50 (XF 498 CNS): 4.43 µM; GI50 (HOP-18 NSCLC): 1.76 µM and 6.05 µM |
| CC1=CC(=O)NP(=O)(Oc2ccc(Cl)cc2)N1 (stereo unspecified) | > 100 µM | > 100 µM |  | > 100 µM | > 100 | > 100 µM | > 100 µM | > 100 |  |  |
| O=C(O)/C=C/c1c2ccc(=O)c(O)c-2oc2c(O)c(O)ccc12 |  |  |  |  |  |  |  |  | 34.5 µM |  |
| O=C(c1ccc(Cl)cc1Cl)N1CCN(C(=O)c2ccc(Cl)cc2Cl)C1=S |  |  |  |  |  |  |  |  | 43.8 µM | GI50 (MDA-N): 20 µM |
| O=CNC(Cc1cnc[nH]1)C(=O)O (stereo unspecified) |  |  |  |  |  |  |  |  | > 100 µM |  |
| CCCCC[C@@H]1CCCC2NC(CCCCCO[Si](c3ccccc3)(c3ccccc3)C(C)(C)C)CCC21 (stereo partly specified) | 28.1 µM | 31.8 µM | 27.7 | 30.2 µM |  |  | 32.4 µM |  |  |  |
| COCN1COCN(C)C1=O | > 100 µM | > 100 µM |  | > 100 µM | > 100 | > 100 µM | > 100 µM |  |  |  |
| O=C1c2ccccc2C(=O)c2c1ccc1conc21 | 3.42 µM | 3.09 µM | > 26.5 | 10.3 µM |  | 26.2 µM | 8.17 µM | 3.83 | 1.41 µM |  |
| CC(=O)CC[N+](C)(C)C |  | > 58.2 µM | > 100 | 19.7 µM |  | 30.5 µM | 53.2 µM | 27.2 | > 100 µM |  |
| COc1ccc2nc3cc(Cl)ccc3c(Nc3ccccc3-c3ccccc3Nc3c4ccc(Cl)cc4nc4ccc(OC)cc34)c2c1 |  | > 93.3 µM | > 100 | > 100 µM | > 76.2 | > 100 µM | > 54.9 µM | > 50.5 | 24.7 µM |  |
| COc1ccccc1/C=C1\C(=O)N(C(=O)Cc2ccccc2)N=C1C | > 100 µM | > 100 µM |  | > 100 µM | > 100 | > 100 µM | > 100 µM |  |  |  |
| C=CCCC(O)c1cc(C)c(O)c(C)c1 (stereo unspecified) | > 100 µM | > 100 µM |  | > 100 µM |  | > 100 µM |  | > 100 |  |  |
| Cn1c(=O)nc2n(-c3ccc(Br)cc3)c3ccccc3nc-2c1=O | 4.39 µM | 2.93 µM | 29.8 | 35.1 µM | 25 | 18.8 µM | 14 µM | 25.4 |  |  |
| COC1CCCc2c(OC(C)=O)ccc(OC(C)=O)c21 (stereo unspecified) | > 100 µM |  |  | > 100 µM |  |  |  | > 100 |  |  |
| O=c1[nH]c2nc3ccccc3c(=O)n2nc1Cc1ccccc1 | > 100 µM |  |  | > 100 µM |  |  | > 100 µM | > 100 |  |  |
| N#CN1CC[C@@H]2CC3(CCC2C1)OCCO3 (stereo partly specified) | > 100 µM | > 100 µM | > 100 | > 100 µM | > 100 | > 100 µM | > 100 µM | > 100 |  |  |
| Nc1n[n+]([O-])c2ccc(Cl)cc2[n+]1[O-] |  |  |  |  |  |  |  |  | 73.5 µM |  |

| Compound | TGI (DMS 114 small cell lung) | TGI (M19-MEL melanoma) | TGI (RXF-631 renal) [µM] | TGI (SNB-78 CNS) | TGI (XF 498 CNS) [µM] | TGI (HOP-18 NSCLC) | TGI (DMS 273 small cell lung) | TGI (LXFL 529 NSCLC) [µM] | TGI (MDA-N) | further results |
| --- | --- | --- | --- | --- | --- | --- | --- | --- | --- | --- |
| Cc1nc(-n2nc(-c3ccccc3)cc2-c2ccccc2)sc1C(=O)CC(=O)C(=O)Nc1ccc(Cl)c(Cl)c1 | > 100 µM | > 100 µM | > 100 | > 100 µM |  | > 100 µM | > 100 µM | > 100 |  |  |
| O=C(O)c1cccc([As]=[As]c2cccc(C(=O)O)c2)c1 (stereo unspecified) |  |  |  |  |  |  |  |  | > 100 µM |  |
| NC(CSC(c1ccccc1)(c1ccccc1)c1ccccc1)C(=O)O (stereo unspecified) |  | 117 µM |  | 95.9 µM | 7.77 | 116 µM | 1.55 µM |  | 12.5 µM | TGI (P388 leukemia): 38.8 µM; GI50 (M19-MEL melanoma): 5.07 µM; TGI (SN12K1 renal): 2.21 µM; TGI (P388/ADR leukemia): 125 µM; GI50 (SNB-78 CNS): 10.8 µM; GI50 (XF 498 CNS): 0.711 µM and 0.959 µM |
| O=C(Nc1cc(Cl)c(I)c(Cl)c1)C(F)(F)F |  |  |  |  |  |  |  |  | > 100 µM |  |
| Cc1cccc(NC(=O)c2c(N)[n+]([O-])c3ccccc3[n+]2[O-])c1 |  | 23.8 µM | 3.24 | 35.4 µM | 24.5 | 32.2 µM | 22.1 µM | 22.9 |  |  |
| O=C(n1c2ccccc2c2n[nH]c(=S)nc21)C(F)(F)F | > 100 µM | > 100 µM |  | > 100 µM | > 100 |  | > 100 µM | > 100 |  |  |
| COc1ccc([N+](=O)[O-])c2c(NCCCN(C)C)c(C)c(C)nc12 |  |  |  |  |  |  |  |  | > 100 µM |  |
| O=S(=O)(F)Cc1ccccc1 |  |  |  |  |  |  |  |  | > 100 µM |  |
| N[C@H]1CCC[C@@H](O)C1O (stereo partly specified) |  |  |  |  |  |  |  |  | > 100 µM |  |
| O=C1NC(c2ccccc2)(c2ccccc2)C(=O)N1CCCCCCN1C(=O)NC(c2ccccc2)(c2ccccc2)C1=O | > 100 µM | > 100 µM |  | > 100 µM | 30.9 | > 100 µM | > 100 µM | > 100 |  |  |
| Cc1c(C)c2cc3c(=O)c(CCl)coc3c(C)c2oc1=O | > 100 µM | > 100 µM | > 100 | > 100 µM |  | > 100 µM |  | > 100 |  |  |
| O=C1c2ccccc2C(=O)N1c1ccc(Cc2ccc(N3C(=O)c4ccccc4C3=O)cc2)cc1 |  |  |  |  |  |  |  |  | > 100 µM |  |
| CC(=O)/C=C1\CC(=O)N(C)c2ccccc2N1 | 64.3 µM | > 100 µM |  | > 100 µM | > 100 |  | > 100 µM | > 100 |  |  |
| CCN(Cc1cc(Cl)cc(C)c1O)Cc1c(O)ccc2ccccc12 |  |  |  |  |  |  |  |  | 35.8 µM |  |
| CN(C)CCCNc1ccnc2c([N+](=O)[O-])cccc12 | 5.56 µM | 5.82 µM |  | > 100 µM | 28.2 |  | 32.8 µM |  |  |  |
| CC(=O)OC1(Sc2ccccc2)CC2[C@H]3COC(C)(C)O[C@H]3CC[C@@]2(C)CC1=O (stereo partly specified) | > 100 µM | > 100 µM | > 100 | > 100 µM | 57.3 |  | > 100 µM | > 100 |  |  |
| CCOC(=O)c1ccc(N=Cc2ccc(N(CCC#N)S(=O)(=O)c3ccccc3)cc2C)cc1 | > 100 µM | > 100 µM | > 100 | > 100 µM | > 100 |  | > 100 µM | > 100 |  |  |
| COc1ccc2c(c1OC)C(=O)C2 | > 100 µM | > 100 µM |  |  | > 100 | > 100 µM | > 100 µM | > 100 |  |  |
| C=C1C(=O)OC2CC1C(OC(=O)/C=C/c1ccccc1)C/C(C)=C/CC/C(C)=C/CCC2(C)O (stereo unspecified) |  |  |  |  |  |  |  |  | 2.67 µM |  |
| CC(C)(C)c1cc(C2c3cc4c(cc3OC(O)(CO)C2C(=O)O)OCO4)cc(C(C)(C)C)c1O (stereo unspecified) (tested in a mixture with another compound) | 23.8 µM | 28.6 µM | 43.3 |  |  | 20.3 µM | 41 µM |  |  |  |
| COc1ccc2nc3cc(Cl)ccc3c(Sc3ccc(N)cc3)c2c1 | 19 µM | 20.2 µM | 34.4 | 34 µM | 27.5 | 25.3 µM | 23.5 µM | 16 |  |  |
| O=C(O)CCC(O)=C1S(=O)(=O)OCCOS1(=O)=O | > 100 µM | > 100 µM |  | > 100 µM |  | > 100 µM | > 100 µM | > 100 | > 100 µM |  |
| COc1ccc2c(=O)c(-c3cc(OC)c(OC)cc3OC)coc2c1 | > 24.6 µM | > 100 µM | > 100 | > 100 µM | 8.07 |  | > 100 µM | > 100 | > 100 µM |  |
